# Test results published in patent US10294230B2, “3,3-difluoropiperidine carbamate heterocyclic compounds as NR2B NMDA receptor antagonists” (Rugen Holdings (Cayman) Limited, priority 2015, dated 2019).
# pIC50, pKi: −log10 of the molar value. Like-named read-outs stand apart in the source and are kept apart here.
# Assays:
# NR2B receptor = NR2B receptor (Rattus norvegicus (Rat), UniProt P35439+Q00960); experiment: [3H] (E)-N1-(2-methoxybenzyl)-cinnamidine radioligand binding, rat brain membranes; details: for pKi: read-out: Ki at the NR2B receptor high affinity site
# Protocol: (§1) This example describes NMDA receptor binding assays using two different radioligands, [^3H] […] An established binding assay using the non-selective NMDA receptor ligand [^3H] […] The binding assay method using the NR2B selective receptor ligand [^3H] […] This assay serves as a selective measure of NR2B receptor binding activity in native rat brain receptors. Briefly, the brains of Male Wistar rats were homogenized (Polytron) before centrifugation at 40,000×g for 15 minutes at 4° C. After 2 washes, the final pellet was homogenized and stored at −80° C. The protein concentration was determined by Bradford assay.
# [^3H] […] Thus, using [^3H]
# (§2) Test compounds were solubilized at 10 mM in DMSO. Then the dilutions were performed with a constant solvent concentration (1% DMSO) in the assay.
# (§3) After incubation for 4.5 h at room temperature, the assays were filtered on GF/B filters pretreated with 0.3% (v/v) PEI with a Brandel system for [^3H] […] The experiment was performed in duplicate (n=2).
# human NR1/NR2B = human NR1/NR2B (Homo sapiens (Human), UniProt Q05586+Q13224); experiment: NR2B antagonist activity, Fluo-4 calcium influx in HEK293 cells; type: cell-based
# Protocol: (§4) HEK293 cell lines stably expressing cloned human NR1/NR2B and NR1/NR2A, respectively, were established according to standard previously described methods (Hansen et al., Comb. Chem High Throughput Screen. 11:304, 2008). Activation of the NR2A or NR2B subtype of NMDA receptor with glutamate as an agonist and glycine co-agonist on these cells results in calcium influx, which can be monitored with fluorescent indicator Fluo-4.
# (§5) For experiments, the cells were seeded onto poly-D-lysine-coated 96-well black plates with clear bottom (Corning) at a density of ˜50,000 cells/well. After overnight culture, the growth medium was removed from the wells and the cells were incubated at 37° C. for 60 min in Hanks buffer containing 4 μM fluo-4-AM (Invitrogen) and 0.1% bovine serum albumin (BSA). After dye-loading, the cells were washed three times with Hanks buffer and incubated for 10 min at room temperature with various concentrations of test compounds prepared in Hanks buffer with 0.1% BSA. The cell plates were placed onto FDSS pCell fluorescence reader (Hamamatsu). After 20 sec reading of background fluorescence, agonist glutamate at final 100 μM and co-agonist glycine at final 50 μM were added to the cells to activate the receptor, and the resulting fluorescence changes were recorded and quantified. Based on the changes in fluorescence intensity, the pharmacological effect of test compounds were analyzed and the IC50 values derived from a non-linear least squares fitting of the concentration-dependent response to a standard logistic equation using Prism (Graphpad, Inc): Amplitude=Max Amplitude/(1+(IC50/[antagonist])^n).
# hERG channel = hERG channel (Homo sapiens (Human), UniProt Q12809); experiment: hERG channel inhibition, whole cell patch clamp in HEK293 cells; type: cell-based; details: for pIC50: HEK293, whole cell patch clamp
# Protocol: The assay was performed on hERG channel stably expressed in HEK293 cells. The cells were cultured at 37° C. in a humidified CO2 incubator in the growth medium consisting of DMEM, 10% fetal bovine serum and antibiotics. Prior to the assay, the cells were seeded onto a 12 mm PDL-coated glass coverslip and cultured in a 35 mm Petri dish. After 16 to 40 hr culture, the cover slip was transferred into the chamber of OctaFlow perfusion system (ALA Instrument) and under a constant flow of extracellular solution (140 mM NaCl, 4 mM KCl, 1 mM MgCl2, 2 mM CaCl2, 10 mM HEPES, 10 mM D-glucose, pH 7.35, osmolarity 290). Whole cell patch clamping was performed with a glass micropipette filled with intracellular solution (120 mM KCl, 1.75 mM MgCl2, 5.4 mM CaCl2, 10 mM HEPES, 10 mM EGTA, and 4 mM ATP-K2, PH 7.2, osmolarity 310). Giga-seal was maintained during the test. The voltage control and current measurement were carried out using Axon amplifier 700B, Digidata 1440A and CLAMPEX10 software (Molecular Devices). Whole-cell hERG currents were recorded following the Petroski protocol: the cell was held at −80 mV, and the voltage step jumped from −80 to 30 mV and stay for 2 sec with a 20 ms prepulse at −40 mV. After depolarization, the voltage was decreased to −40 mV and stay for 2 sec, and returned back to −80 mV. Test compound was applied by quartz capillary tubes tip (200 μm inner diameter), and the flow rate was controlled at 2-3 ml/min with OctaFlow perfusion system. Different concentrations of the compound were applied to the cells for 5 min and the hERG current was measured three times before, during and after compound treatment. The data were analyzed using Clampfit 10 software (Molecular Devices) to generate IC50 values.
# CYP2D6 = CYP2D6 (Homo sapiens (Human), UniProt P10635); experiment: CYP P450 enzyme inhibition, pooled human liver microsome; type: in vitro ADME; details: pooled HLM, dextromethorphan 5 μM
# Protocol: Those CYP isoforms and their corresponding probe substrates are as follows: CYP1A2 (phenacetin, 30 μM), CYP2C9 (tolutamide, 100 μM), CYP2C19 (S-mephenytoin, 40 μM), CYP2D6 (dextromethorphan, 5 μM) and CYP3A4 (midazolam, 1 μM). All probe substrates were used at concentrations near or below their Kms. For experiment, a reaction mixture of test compound at 10 μM or in serial dilution, CYP probe substrate described above and 0.2 mg/mL pooled HLM in phosphate buffer, pH 7.4 in a final volume of 200 μL was pre-incubated at 37° C. for 10 minutes in triplicate. The reaction was initiated by addition of NADPH at final concentration of 1 mM. The reaction was terminated after 10 minutes (CYP1A2, CYP2D6 and CYP3A4) or 30 minutes (CYP2C9 and CYP2C19) by addition of 100 μL ice-cold acetonitrile with internal standard (IS). The samples were then centrifuged at 13,000 rpm and the supernatants were injected to LC-MS/MS (Agilent Technologies) to quantify the concentration of the specific metabolites of the probe substrates formed by individual CYP450 isoforms. The inhibition ratio is calculated as: (Mt−M0)/Mwater×100% in which Mt and M0 represent the concentrations of the specific probe substrate metabolite, which was formed by individual CYP450 isoform, at the beginning and end of the reaction in the presence of test compound; while Mwater represents the concentration of the specific metabolite at the end of the reaction in the absence of test compound. Test compound concentration-dependent response data experiments performed in triplicate.
# NMDA receptor = experiment: [3H] MK-801 radioligand binding, rat brain membranes; details: 2 nM [3H] MK-801
# Protocol: as §1, §2, §3
# human NR1/NR2A = human NR1/NR2A (Homo sapiens (Human), UniProt Q05586+Q12879); experiment: NR2A antagonist activity, Fluo-4 calcium influx in HEK293 cells; type: cell-based; details: Table 2.1, glutamate 100 μM, glycine 50 μM
# Protocol: as §4, §5
# [1] = system: electroconvulsive threshold (tonic convulsions); experiment: Electroconvulsive Threshold Test (ECT); type: in vivo, rats; details: rats
# Protocol: Test compound E1-8.2 was administered as the free base.
# Rats were administered ECS (rectangular current: 0.6 ms pulse width, 1.5 s duration, 200 Hz) via earclip electrodes connected to a constant current shock generator (Ugo Basile: type 7801). Test compounds were administered by oral gavage (p.o.) 1 hour before the test at a dose volume of 5 mL/kg.
# Treatment groups of 20 rats were exposed to ECS as follows: The first animal was exposed to 30 mA of ECS. […] (increases of 5 mA) until the first tonic convulsion was observed. Once the first tonic convulsion was observed, the intensity of ECS was decreased by 2 mA for the next animal and then decreased or increased by 2 mA from animal to animal depending on whether the previous animal convulsed or not. If the first animal did convulse (tonic convulsions) within 5 seconds, animal no2 is exposed to 25 mA, etc. . . . (decreases of 5 mA) until the absence of tonic convulsions was observed. At this point, the intensity of ECS was increased by 2 mA for the next animal and then decreased or increased by 2 mA from animal to animal depending on whether the previous animal convulsed or not. The minimum current intensity applied is 5 mA and the maximum 95 mA. The first 5 animals serve to approach threshold current and were not included in the analysis. The results are presented as the mean current intensity administered to the final 15 animals of a group. The test was performed blind. A positive percent change indicates an anticonvulsant effect. A negative percent change indicates a proconvulsant effect. The test substance was evaluated at 4 doses, typically using 0.5% dimethylsulfoxide, 4% hydroxypropyl-b-cyclodextrin water as a vehicle, and administered p.o. 60 minutes before ECS, and compared with a vehicle control group. Diazepam (16 mg/kg p.o.), administered under the same experimental conditions, was used as reference substance. The experiment included 6 groups. Data with the test substance was analyzed by comparing treated groups with vehicle control using one-way ANOVA followed by Dunnett's t tests.
# [2] = system: KCl-induced cortical spreading depression; experiment: Cortical Spreading Depression (CSD), aura phase of migraine model; type: in vivo; details: rats
# Protocol: The cortical spreading depression model is utilized to investigate whether treatment with compounds of the present invention affect electrophysiological and hemodynamic events in a rat model of migraine.
# Rats were anesthetized with 5% isoflurane (in 70% N2O and 30% O2; flow 300 ml/min) and placed in a stereotactic frame. […] The rectal temperature was maintained at 37.0±1.0° C. with a homeothermic blanket system. The skin was opened by a medial incision and retracted laterally. Three burr holes were drilled under saline cooling over the right hemisphere at the following coordinates (mm from bregma): (1) posterior 4.5, lateral, 2.0 (occipital cortex): KCl application site; (2) posterior 0.5, lateral 2.0 (parietal cortex): LDF recording site; (3) anterior 2, lateral 2 (frontal cortex): DC potential recording site. A laser-Doppler flow probe (Oxyflow, Oxford Optronics, UK) to monitor CBF and an invasive Ag/AgCl electrode for measuring direct current (DC) potential shifts were placed in the parietal and frontal cortex burr holes on the intact dura and in the cortex, respectively. The laser-Doppler flow probe was positioned in an area free of large pial and dural vessels to minimize a large-vessel contribution to the signal. For the DC-potential measurement, a reference electrode was fixed in the neck. Dura overlying the occipital cortex was gently removed and care was taken to avoid bleeding. After surgical preparation, the cortex was allowed to recover for 15 minutes under saline irrigation. A cotton ball (2 mm diameter) soaked with 1M KCl was placed on the pial surface and kept moist by placing 5 μl of KCl solution every 15 minutes. Test compound or vehicle was administered ten (10) minutes prior to CSD initiation. […] The number of KCl-induced CSDs was counted for 2 hours. The CBF and DC-potentials were monitored continuously starting from 5 minutes before KCl exposure.
# Test compound E1-1.2 was administered as a mesylate salt (mpk based on molecular weight of the mesylate salt).
# The data was collected in Windaq acquisition software (Dataq Instruments, USA) at 20 kHz. The raw data was analyzed in Clampfit program (Axon Instruments, USA). The signals were low pass filtered (cut off range 5-10000 Hz) that CSD episodes in DC and CBF could be confirmed. The following parameters were analyzed: i) the number, duration and amplitude of DC-potentials, and ii) the number and amplitude of CBF events.
# Doses were given as milligram per kilogram (mpk). […] Bars represent mean±Standard Error of Mean (SEM), and differences were considered to be statistically significant at the P<0.05 level (n=8, * different from vehicle group). Statistical analysis was performed using StatsDirect statistical software. Differences between groups were analyzed by using 1-way ANOVA and Dunnett's post hoc test.
# [3] = Table 2.1, HEK293 human NR1/NR2B, glutamate 100 μM, glycine 50 μM
# [4] = E1-1.2 at various doses, MK-801 1.25 mg/kg
# Sequence of human NR1/NR2A (Q12879 23-1464, other chains not shown): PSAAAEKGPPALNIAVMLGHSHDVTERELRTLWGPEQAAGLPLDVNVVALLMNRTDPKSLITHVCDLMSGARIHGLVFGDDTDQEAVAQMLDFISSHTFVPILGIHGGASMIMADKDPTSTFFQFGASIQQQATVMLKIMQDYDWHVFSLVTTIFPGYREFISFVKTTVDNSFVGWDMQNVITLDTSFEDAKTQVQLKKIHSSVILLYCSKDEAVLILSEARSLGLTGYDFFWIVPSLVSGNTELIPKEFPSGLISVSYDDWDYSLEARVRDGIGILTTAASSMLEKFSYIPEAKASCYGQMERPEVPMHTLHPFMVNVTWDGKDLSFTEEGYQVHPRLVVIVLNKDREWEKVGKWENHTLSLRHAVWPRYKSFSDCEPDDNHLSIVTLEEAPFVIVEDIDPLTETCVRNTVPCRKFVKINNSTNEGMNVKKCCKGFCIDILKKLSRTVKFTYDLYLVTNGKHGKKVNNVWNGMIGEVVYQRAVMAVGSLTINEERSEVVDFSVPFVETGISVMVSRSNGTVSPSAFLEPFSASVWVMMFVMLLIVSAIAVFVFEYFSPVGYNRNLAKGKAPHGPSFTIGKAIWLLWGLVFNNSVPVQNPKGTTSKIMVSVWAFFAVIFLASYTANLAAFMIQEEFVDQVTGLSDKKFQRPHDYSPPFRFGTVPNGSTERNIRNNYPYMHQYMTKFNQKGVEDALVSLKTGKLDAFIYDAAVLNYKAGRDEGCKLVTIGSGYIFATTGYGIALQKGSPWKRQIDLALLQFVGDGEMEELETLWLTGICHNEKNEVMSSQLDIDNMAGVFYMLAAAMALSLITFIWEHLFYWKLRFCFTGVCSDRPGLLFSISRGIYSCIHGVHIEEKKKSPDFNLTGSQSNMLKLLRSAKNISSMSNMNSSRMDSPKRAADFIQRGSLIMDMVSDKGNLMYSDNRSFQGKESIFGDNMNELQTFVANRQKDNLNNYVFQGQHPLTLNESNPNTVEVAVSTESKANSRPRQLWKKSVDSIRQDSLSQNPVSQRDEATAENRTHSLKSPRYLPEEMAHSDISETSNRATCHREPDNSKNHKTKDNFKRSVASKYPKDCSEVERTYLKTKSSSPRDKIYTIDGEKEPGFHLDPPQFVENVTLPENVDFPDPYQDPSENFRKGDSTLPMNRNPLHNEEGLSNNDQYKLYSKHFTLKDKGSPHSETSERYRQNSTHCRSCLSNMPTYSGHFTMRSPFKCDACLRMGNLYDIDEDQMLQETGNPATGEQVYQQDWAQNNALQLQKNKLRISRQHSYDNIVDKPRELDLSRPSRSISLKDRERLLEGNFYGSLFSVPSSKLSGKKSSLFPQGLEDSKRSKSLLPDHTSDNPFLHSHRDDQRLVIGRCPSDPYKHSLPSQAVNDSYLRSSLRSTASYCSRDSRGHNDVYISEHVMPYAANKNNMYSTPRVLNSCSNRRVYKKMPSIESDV
# Sequence of CYP2D6 (P10635 whole entry): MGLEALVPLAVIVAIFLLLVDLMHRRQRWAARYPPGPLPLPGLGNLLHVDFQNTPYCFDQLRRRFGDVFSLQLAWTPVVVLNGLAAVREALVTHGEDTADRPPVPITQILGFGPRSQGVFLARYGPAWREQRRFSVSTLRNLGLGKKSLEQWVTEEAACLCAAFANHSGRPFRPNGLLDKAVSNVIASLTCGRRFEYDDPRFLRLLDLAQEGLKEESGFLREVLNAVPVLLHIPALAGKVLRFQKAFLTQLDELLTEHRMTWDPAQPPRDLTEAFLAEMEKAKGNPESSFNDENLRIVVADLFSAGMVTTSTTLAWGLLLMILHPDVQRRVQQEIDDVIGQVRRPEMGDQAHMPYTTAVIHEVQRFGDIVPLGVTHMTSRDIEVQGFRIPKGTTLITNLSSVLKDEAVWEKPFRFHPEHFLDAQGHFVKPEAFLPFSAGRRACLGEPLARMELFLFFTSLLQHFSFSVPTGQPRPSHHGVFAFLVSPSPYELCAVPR
# Sequence of NR2B receptor (Q00960 27-1482, other chains not shown): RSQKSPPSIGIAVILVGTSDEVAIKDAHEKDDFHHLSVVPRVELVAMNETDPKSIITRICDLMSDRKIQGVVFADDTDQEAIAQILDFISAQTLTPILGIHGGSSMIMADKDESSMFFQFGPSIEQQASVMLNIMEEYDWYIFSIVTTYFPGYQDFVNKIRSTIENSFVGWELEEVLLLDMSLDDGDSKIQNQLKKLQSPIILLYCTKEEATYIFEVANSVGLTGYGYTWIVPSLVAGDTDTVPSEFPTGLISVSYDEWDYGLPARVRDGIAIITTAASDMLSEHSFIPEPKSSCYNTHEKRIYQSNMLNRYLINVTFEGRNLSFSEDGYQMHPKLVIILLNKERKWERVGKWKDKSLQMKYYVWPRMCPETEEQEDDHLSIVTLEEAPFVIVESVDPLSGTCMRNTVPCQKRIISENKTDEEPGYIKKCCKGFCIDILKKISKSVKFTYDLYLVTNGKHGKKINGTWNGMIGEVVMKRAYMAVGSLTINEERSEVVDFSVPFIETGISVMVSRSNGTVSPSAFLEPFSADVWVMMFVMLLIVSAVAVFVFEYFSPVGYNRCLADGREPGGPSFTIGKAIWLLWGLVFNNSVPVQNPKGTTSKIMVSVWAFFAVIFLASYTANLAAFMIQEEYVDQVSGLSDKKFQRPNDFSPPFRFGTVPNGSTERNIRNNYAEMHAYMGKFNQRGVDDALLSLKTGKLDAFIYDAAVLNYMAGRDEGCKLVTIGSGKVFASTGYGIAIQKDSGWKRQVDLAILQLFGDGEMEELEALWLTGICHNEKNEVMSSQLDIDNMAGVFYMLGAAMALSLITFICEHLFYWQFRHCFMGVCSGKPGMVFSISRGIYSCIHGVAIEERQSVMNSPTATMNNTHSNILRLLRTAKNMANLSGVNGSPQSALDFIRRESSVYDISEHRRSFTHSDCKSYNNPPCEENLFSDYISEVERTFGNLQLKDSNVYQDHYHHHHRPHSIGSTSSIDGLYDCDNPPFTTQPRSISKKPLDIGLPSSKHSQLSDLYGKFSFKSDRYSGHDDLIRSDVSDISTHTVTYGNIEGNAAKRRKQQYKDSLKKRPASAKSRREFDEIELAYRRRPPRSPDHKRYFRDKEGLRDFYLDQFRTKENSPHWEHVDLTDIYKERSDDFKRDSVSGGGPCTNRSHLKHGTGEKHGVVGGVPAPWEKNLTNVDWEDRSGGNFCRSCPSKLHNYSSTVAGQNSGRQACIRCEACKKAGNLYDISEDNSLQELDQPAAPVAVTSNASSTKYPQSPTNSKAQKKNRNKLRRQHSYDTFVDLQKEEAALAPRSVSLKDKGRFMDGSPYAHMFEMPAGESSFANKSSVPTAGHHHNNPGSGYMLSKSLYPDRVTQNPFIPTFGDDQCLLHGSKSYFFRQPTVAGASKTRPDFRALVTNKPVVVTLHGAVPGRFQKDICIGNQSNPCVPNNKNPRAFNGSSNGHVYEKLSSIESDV
# Sequence of human NR1/NR2B (Q13224 27-1484, other chains not shown): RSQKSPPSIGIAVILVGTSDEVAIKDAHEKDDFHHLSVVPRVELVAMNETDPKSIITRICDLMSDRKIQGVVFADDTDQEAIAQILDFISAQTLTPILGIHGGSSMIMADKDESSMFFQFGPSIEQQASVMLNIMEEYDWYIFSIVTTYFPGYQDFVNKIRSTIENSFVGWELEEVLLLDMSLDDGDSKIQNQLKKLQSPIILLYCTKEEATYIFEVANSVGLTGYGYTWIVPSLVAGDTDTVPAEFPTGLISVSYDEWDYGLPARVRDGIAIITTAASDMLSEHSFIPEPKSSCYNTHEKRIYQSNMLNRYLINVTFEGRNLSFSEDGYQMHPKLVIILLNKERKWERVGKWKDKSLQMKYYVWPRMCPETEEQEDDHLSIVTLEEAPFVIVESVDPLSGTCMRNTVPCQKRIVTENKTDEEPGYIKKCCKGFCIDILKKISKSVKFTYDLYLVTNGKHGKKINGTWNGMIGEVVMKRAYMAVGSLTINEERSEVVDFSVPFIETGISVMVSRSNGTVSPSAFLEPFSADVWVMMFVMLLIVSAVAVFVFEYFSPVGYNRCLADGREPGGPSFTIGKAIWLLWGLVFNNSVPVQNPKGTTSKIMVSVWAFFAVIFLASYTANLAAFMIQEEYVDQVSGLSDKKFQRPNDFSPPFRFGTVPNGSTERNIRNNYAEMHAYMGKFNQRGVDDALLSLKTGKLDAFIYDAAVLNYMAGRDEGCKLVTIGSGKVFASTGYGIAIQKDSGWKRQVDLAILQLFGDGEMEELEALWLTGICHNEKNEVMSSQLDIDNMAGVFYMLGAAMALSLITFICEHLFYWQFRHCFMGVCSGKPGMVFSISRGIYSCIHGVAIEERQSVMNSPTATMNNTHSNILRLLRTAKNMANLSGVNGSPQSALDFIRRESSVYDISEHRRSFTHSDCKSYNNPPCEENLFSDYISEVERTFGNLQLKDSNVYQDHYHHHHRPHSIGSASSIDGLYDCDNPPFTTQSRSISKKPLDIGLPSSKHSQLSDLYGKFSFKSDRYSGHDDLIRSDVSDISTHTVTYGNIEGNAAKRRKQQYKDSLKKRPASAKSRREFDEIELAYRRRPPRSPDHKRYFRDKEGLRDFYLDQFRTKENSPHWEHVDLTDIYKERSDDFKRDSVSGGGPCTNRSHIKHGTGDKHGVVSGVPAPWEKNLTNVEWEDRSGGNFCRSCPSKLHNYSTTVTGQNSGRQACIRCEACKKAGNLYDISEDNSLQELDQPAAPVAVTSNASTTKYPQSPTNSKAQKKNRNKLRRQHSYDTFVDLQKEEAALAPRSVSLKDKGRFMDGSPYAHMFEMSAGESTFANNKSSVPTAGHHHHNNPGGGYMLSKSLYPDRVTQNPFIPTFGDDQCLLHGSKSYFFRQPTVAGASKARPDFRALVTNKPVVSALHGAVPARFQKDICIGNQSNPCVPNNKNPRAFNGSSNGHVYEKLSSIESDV
Compound,pIC50 (human NR1/NR2B; [3]),pIC50 (human NR1/NR2B; Table 2.2),pIC50 (human NR1/NR2B; Table 2.3),hERG @ 10 μM (%) (hERG channel),displacement of [3H] (E)-N1-(2-methoxybenzyl)-cinnamidine at the NR2B receptor high affinity site (NR2B receptor; rat brain membranes),CYP2D6 @ 10 μM (%) (CYP2D6),partial effect on [3H] MK-801 binding (NMDA receptor),further results
"COc1ccccc1CNC(=N)/C=C/c1ccccc1 [(E)-N1-(2-methoxybenzyl)-cinnamidine, reference compound]",,,,,,,,"pKi (NR2B receptor; rat brain membranes, [3H] (E)-N1-(2-methoxybenzyl)-cinnamidine): 9.74"
"O=C(OCc1ccc(Cl)cc1)N1CC[C@H](CNc2nccn3cnnc23)C(F)(F)C1 [Compound E1-1.3, R-4-chlorobenzyl 4-(([1,2,4]triazolo[4,3-a]pyrazin-8-ylamino)methyl)-3,3-difluoropiperidine-1-carboxylate]",7.83,7.83,7.83,19%,97%,37%,41%,pKi (NR2B receptor): 8.63; pIC50 (human NR1/NR2A): < 5.00
"CCc1ccc(COC(=O)N2CC[C@H](CNc3nccn4cnnc34)C(F)(F)C2)cc1 [Compound E1-1.5, R-4-ethylbenzyl 4-(([1,2,4]triazolo[4,3-a]pyrazin-8-ylamino)methyl)-3,3-difluoropiperidine-1-carboxylate]",,,,,97%,,48%,
"Cc1ccc(COC(=O)N2CC[C@H](CNc3cncc4nncn34)C(F)(F)C2)cc1 [Compound E1-2.2, R-4-methylbenzyl 4-(([1,2,4]triazolo[4,3-a]pyrazin-5-ylamino)methyl)-3,3-difluoropiperidine-1-carboxylate]",7.98,7.98,7.98,32%,,18%,,pIC50 (human NR1/NR2A): < 5.00
"Cc1ccc(COC(=O)N2CC[C@H](CNc3ncc4cn[nH]c4n3)C(F)(F)C2)cc1 [Compound E1-8.2, (+)-R-4-methylbenzyl-4-((1H-pyrazolo[3,4-d]pyrimidin-6-ylamino)methyl)-3,3-difluoropiperidine-1-carboxylate]",7.77,7.77,7.77,57%,95%,83%,33%,"pIC50 (hERG channel): 5.17; pIC50 (CYP2D6): 5.23; electroconvulsive threshold, pro-/anticonvulsant activity ([1]; 0.5 and 2 mpk p.o., free base): modest proconvulsant activity; electroconvulsive threshold, pro-/anticonvulsant activity ([1]; 10 and 20 mpk p.o., free base): anticonvulsant activity"
"Cc1ccc(COC(=O)N2CC[C@H](CNc3nc4ccccn4n3)C(F)(F)C2)cc1 [Compound E1-9.2, (+)-R-4-methylbenzyl 4-(([1,2,4]triazolo[1,5-a]pyridin-2-ylamino)methyl)-3,3-difluoropiperidine-1-carboxylate]",7.32,7.32,7.32,38%,97%,14%,34%,pKi (NR2B receptor): 7.95
"Cc1ccc(COC(=O)N2CC[C@H](CNc3ncccn3)C(F)(F)C2)cc1 [Compound E1-22.2, (+)-R-4-methylbenzyl 3,3-difluoro-4-((pyrimidin-2-ylamino)methyl)-piperidine-1-carboxylate]",,,,,,,,pIC50 (hERG channel): < 5.00
"Cc1ccc(COC(=O)N2CC[C@@H](CNc3nccn4cnnc34)C(F)(F)C2)cc1 [Compound E2-1.2, (−)-S-4-methylbenzyl 4-(([1,2,4]triazolo[4,3-a]pyrazin-8-ylamino)methyl)-3,3-difluoropiperidine-1-carboxylate]",6.81,6.81,6.81,22%,98%,,36%,pKi (NR2B receptor): 7.13; pIC50 (human NR1/NR2A): < 5.00
"FC(F)(F)c1ccc(C(F)(F)CN2CCC(Nc3ncnc4[nH]ncc34)CC2)cc1 [LX-1, reference compound]",,,,,,93%,,
"CN1C(=O)CN=C(c2ccccc2)c2cc(Cl)ccc21 [diazepam, reference compound]",,,,,,,,"electroconvulsive threshold, pro-/anticonvulsant activity ([1]; 16 mpk p.o.): expected anticonvulsant activity"
"Cn1c(=O)c2[nH]cnc2n(C)c1=O [theophylline, reference compound]",,,,,,,,"electroconvulsive threshold, pro-/anticonvulsant activity ([1]; 128 mpk p.o.): expected proconvulsant activity"
MK-801 [reference compound],,,,,,,,"number of CBF events vs vehicle ([2]; E1-1.2 at 10 mg/kg, MK-801 at 1.25 mg/kg): decreased; amplitude of DC potentials vs vehicle [2, 4]: not statistically different; duration of DC potentials vs vehicle [2, 4]: increased"
